Measured values reported in patent publication US20220213198A1, “METHOD OF TREATMENT” (The Council of the Queensland Institute of Medical Research, priority 2019, published 2022).

Key:
MR1 on human cell lines = molecular target: T1, MR1 on human cell lines (Homo sapiens, UniProt Q95460); assay: MR1 surface expression on human cell lines after ligand incubation; format: cell-based; conditions: range of human cell lines, after incubation (not shown)
T1 construct: endogenous in cells
From the text: (§1) MR1 mRNA transcripts are present in different tissues and cell lines from mice and humans. […] In contrast, whether mouse tumor cell lines express MR1 has not previously been examined. […] Basally, the level of MR1 was almost undetectable on the surface of all tumor cell lines examined (FIG. 2D). […] The kinetics of MR1 upregulation on B16F10 cells was similar to what was previously reported for human C1R cells (B-cell lymphoblastoid cell line) (McWilliam et al., 2016). […] Next, the impact of up-regulation of MR1 on B16F10 or LWT1 prior to i.v injection to WT or MR1−/− mice on the number of lung metastases was assessed.

[1] = molecular target: T2, surface MR1 on mouse tumor cell lines (Mus musculus, UniProt Q8HWB0); assay: MR1 surface expression on mouse tumor cell lines by flow cytometry; format: cell-based; conditions: for MR1 cell surface expression: 100 nM, 4 hours
T2 construct: endogenous in cells
Experimental: FIG. 2. Up-regulation of MR1 on B16F10 cells increases lung metastases that is dependent on MAIT cells. (A) The schematic and timeline of expanding MAIT cells from splenocytes derived from C57BL/6 WT mice with IL-2 and 5-OP-RU, for sorting and adoptive transfer into tumor-bearing mice. (B, C) Groups of WT or MR1^−/− or Rag2cγ^−/− mice (n=5-6/group) were injected i.v. with (B) 1×10^5 or (C) 1×10^4 B16F10 melanoma cells. In some groups, sorted MAIT or T conventional cells (cT) (non-MAIT αβ^+ T cells) (2×10^5 cells/mouse) from C57BL/6 (B) WT or (C) TCRδ^−/− mice were i.v. injected into the indicated groups of mice one day before tumor inoculation. (C) One group of mice received i.v injection of media alone as a control. (B, C) On day 14 relative to tumor cell inoculation, lungs were harvested and the metastatic burden was quantified by counting colonies on the lung surface. Data presented as mean±SEM. (D) B16F10 or LWT1 melanoma cells were stimulated in vitro with DMSO or 5-OP-RU (100 nM) for 4 hours before cell surface MR1 expression was determined by flow cytometry. Groups of C57BL/6 WT or MR1^−/− mice (n=5-6/group) were i.v. injected with (E) 1×10^5 B16F10 or (F) 5×10^5 LWT1 cells melanoma cells pulsed with DMSO or 5-OP-RU (100 nM, 4 hours). Fourteen days later relative to tumor cell inoculation, lungs were harvested and the metastatic burden was quantified by counting colonies on the lung surface. Data presented as mean±SEM. Experiments performed once for (B, C, F) and three times for (D, E) with one representative experiment shown. Significant differences between groups as indicated by crossbars were determined using a one-way ANOVA followed by Tukey's post-hoc test (B, E, F), *p<0.05, **p<0.01, ****p<0.0001
Naïve or tumor-bearing lung single-cell suspensions were generated as previously described (Blake et al., 2016) and incubated with anti-CD16/32 (2.4G2) to block Fc receptors on ice prior to surface staining with the antibodies. The following antibodies were used for FACs analysis: anti-CD45.2 (104), anti-TCRβ (H57-597), anti-NK1.1 (PK136), anti-NKp46 (29A1.4), anti-CD45R (B220, RA3-6B2), anti-F4/80 (BM8), anti-CD69 (H1.2F3) (all from BioLegend, eBioscience), and MR1 tetramers. For intracellular cytokine staining, cells were surface stained as described above and then fixed and permeabilized with a cytofix/cytoperm kit (BD Biosciences) followed by staining with anti-IFNγ (XMG1.2), anti-TNF (MP6-XT22), anti-IL-17A (TC11-18H10.1) or isotype (eBio299Arm) antibody (all from BioLegend). All data were collected on a Fortessa 4 flow cytometer (BD Biosciences) and analyzed with FlowJo v10 software (TreeStar, Inc.).
as §1

T1 sequence (Q95460 23-341): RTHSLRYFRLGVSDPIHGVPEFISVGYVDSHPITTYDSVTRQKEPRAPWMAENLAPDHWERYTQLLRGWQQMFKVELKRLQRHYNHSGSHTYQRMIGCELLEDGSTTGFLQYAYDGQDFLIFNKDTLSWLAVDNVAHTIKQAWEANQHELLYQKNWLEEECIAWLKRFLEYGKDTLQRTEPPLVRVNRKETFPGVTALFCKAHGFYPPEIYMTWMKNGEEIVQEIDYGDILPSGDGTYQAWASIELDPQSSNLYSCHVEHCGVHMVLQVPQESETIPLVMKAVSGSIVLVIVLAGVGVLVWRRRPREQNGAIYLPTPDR

MR1 expression (MR1 on human cell lines): became upregulated
lowest ligand concentration that upregulated MR1 ([1]; B16F10, dose titration): 10 nM
MR1 cell surface expression ([1]; B16F10 melanoma cells): substantially upregulated
MR1 cell surface expression ([1]; LWT1 melanoma cells): substantially upregulated
MR1 cell surface expression ([1]; MC38 parental or OVA, HcMel3, HcMel12, SM1WT1, MCA1956 cells): upregulated to a varying extent
MR1 cell surface expression ([1]; RM-1, 4T1.2 or 3LL carcinoma cells): not upregulated
SMILES: CC(=O)C=Nc1c(NC[C@H](O)[C@H](O)[C@H](O)CO)[nH]c(=O)[nH]c1=O [5-OP-RU]
